In US20240239811A1, “5-(5-(PIPERIDIN-4-YL)THIENO[3,2-C]PYRAZOL-2-YL]INDAZOLE DERIVATIVES AND RELATED COMPOUNDS AS MODULATORS FOR SPLICING NUCLEIC ACIDS AND FOR THE T” (REMIX THERAPEUTICS INC., priority 2020, published 2024) one finds IC50 and AC50 data, which are given here for 24 compounds.

Each structure is given as a SMILES string. Structures can show the parent of a compound that is named as a salt.

Holding throughout (format): cell-based
Assay [1] concerns HTT mRNA. Nature of the assay: Splicing assay (RT-qPCR) monitoring HTT splice variants, canonical (CJ) and alternative (AJ) junction. The following applies: 50% response, A673 or K562 cell line, 24 hours; for IC50: decrease in CJ mRNA; for AC50: increase in AJ mRNA. In a few lines:
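A673 or K562 cells were treated 24 h with an 11-point 3-fold dilution series (top 10 uM, ≤0.25% DMSO) at 37 °C. HTT canonical- and alternative-junction mRNAs were quantified in lysates by one-step RT-qPCR. Values were normalized to PPIA (A673) or GAPDH/GUSB (K562).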
(In general: In qPCR the cycle at which signal appears reflects the starting amount.)

Assay [2] relates to HTT CJ mRNA. As to the kind of experiment: Gene panel canonical junction qPCR assay, HTT. Particulars: Table 6, decrease in CJ mRNA, read-out: HTT IC50 (decrease in CJ mRNA levels). In a few lines: (§1)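 A673 or K562 cells treated 24 h at 37° C with 11-point 3-fold dilutions, top 10 uM, DMSO ≤0.25%. CJ mRNA quantified by RT-qPCR with exon-junction-spanning probeset, ΔΔCt vs housekeeping gene (GAPDH, GUSB or PPIA) and DMSO control. IC50 from 4-parameter fit of percentage CJ decrease.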

Assay [3] relates to SMN2 CJ mRNA. Nature of the assay: Gene panel canonical junction qPCR assay, SMN2. Particulars: Table 6, decrease in CJ mRNA, read-out: SMN2 IC50 (decrease in CJ mRNA levels). The method, boiled down:
as §1

In assay [4] the test system is Target C CJ mRNA. Nature of the assay: Gene panel canonical junction qPCR assay, Target C. Particulars: Table 6, decrease in CJ mRNA, read-out: Target C IC50 (decrease in CJ mRNA levels). In a few lines: as §1

By IC50 is commonly meant the concentration needed to halve the response being measured. As usually defined, the AC50 is the concentration giving half of the maximal activity seen. Higher therefore signals weaker potency. For `Cn1cc2cc(-c3nc4sc(N5CCN6CCCC6C5)cc4s3)cc(F)c2n1` (stereo not drawn) [Compound 144, 7-fluoro-5-(5-[hexahydro-1H-pyrrolo[1,2-a]pyrazin-2-yl]thieno[2,3-d][1,3]thiazol-2-yl)-2-methylindazole], the half-maximal inhibitory concentration (IC50) is 1000 to 10000 nM in assay [1], 1000 to 10000 nM in assay [2], below 100 nM in assay [3] and above 10000 nM in assay [4]. This compound also showed a half-maximal activity concentration (AC50) in assay [1] of 100 to 1000 nM.

Turning to `Cn1cc2cc(-c3nc4sc(C5CCNCC5)cc4s3)c(O)c(F)c2n1` [Compound 206, 7-fluoro-2-methyl-5-[5-(piperidin-4-yl)thieno[2,3-d][1,3]thiazol-2-yl]indazol-6-ol], the 50% inhibitory concentration (IC50) in assay [1] is below 100 nM; in assay [2], below 100 nM; in assay [3] it was below 100 nM; in assay [4], 100 to 1000 nM. Moreover, in assay [1], the AC50 was below 100 nM.

On to `Cc1cn2nc(-c3cc4sc(C5CCNCC5)nc4s3)cc(C)c2n1` [Compound 125, 4-(5-[2,8-dimethylimidazo[1,2-b]pyridazin-6-yl]thieno [2,3-d][1,3]thiazol-2-yl) piperidine], for which the IC50 in assay [1] lay within 100 to 1000 nM; in assay [2], 100 to 1000 nM; in assay [3] it was 100 to 1000 nM; in assay [4] it was 1000 to 10000 nM. For the same compound, the AC50 in assay [1] was 100 to 1000 nM.

Regarding `Cc1cn2cc(-c3nc4sc(C5CCNCC5)cc4s3)ncc2n1` [Compound 205, 4-(2-{2-methylimidazo[1,2-a]pyrazin-6-yl}thieno[2,3-d][1,3]thiazol-5-yl)piperidine], the IC50 in assay [1], in assay [2], in assay [3] and in assay [4] was 1000 to 10000 nM in each case. This compound yielded an AC50 in assay [1] of 1000 to 10000 nM.

For the compound `C[C@@H]1C[C@H](c2cc3sc(-c4cc(F)c5nn(C)cc5c4)nc3s2)CCN1` [Compound 192, 7-fluoro-2-methyl-5-[5-(2-methylpiperidin-4-yl)thieno[2,3-d][1,3]thiazol-2-yl]indazole], the 50% inhibitory concentration (IC50) in assay [1], in assay [2], in assay [3] and in assay [4] was below 100 nM each time. The compound further returned an AC50 in assay [1] below 100 nM.

Consider `CCN1CCC(n2cc3cc(-c4cc(F)c5nn(C)cc5c4)sc3n2)CC1` [Compound 149, 5-[2-(1-ethylpiperidin-4-yl)thieno[2,3-c]pyrazol-5-yl]-7-fluoro-2-methylindazole], for which the IC50 in assay [1] was below 100 nM; in assay [2] it was below 100 nM; in assay [3], below 100 nM; in assay [4], 100 to 1000 nM. The same compound gave an AC50 in assay [1] below 100 nM.

As to `Cn1cc2cc(-c3cc4cn(C5=CCOCC5)nc4s3)cc(F)c2n1` [Compound 177], the IC50 in assay [1], in assay [2], in assay [3] and in assay [4] was above 10000 nM each time. This compound registered an AC50 in assay [1] above 10000 nM.

Regarding `Cc1cn2nc(-c3cc4cn(C5CCNCC5)nc4s3)c(O)c2c(C)n1` [Compound 213, 4,6-dimethyl-2-[2-(piperidin-4-yl)thieno[2,3-c]pyrazol-5-yl]pyrazolo[1,5-a]pyrazin-3-ol hydrochloride], the IC50 is 1000 to 10000 nM in assay [1], 1000 to 10000 nM in assay [2], 1000 to 10000 nM in assay [3] and above 10000 nM in assay [4]. In addition, in assay [1], the AC50 lay in the range of 1000 to 10000 nM.

As for `CN1CCC(n2cc3cc(-c4cc(F)c5nn(C)cc5c4)sc3n2)CC1` [Compound 150, 7-fluoro-2-methyl-5-[2-(1-methylpiperidin-4-yl)thieno[2,3-c]pyrazol-5-yl]indazole], the IC50 in assay [1] is 100 to 1000 nM; in assay [2] it was 100 to 1000 nM; in assay [3], below 100 nM; in assay [4] it was 100 to 1000 nM. The compound further displayed a half-maximal activity concentration (AC50) in assay [1] of 100 to 1000 nM.

For `COc1cc2nn(C)cc2cc1-c1cc2cn(C3CCNCC3)nc2s1` [Compound 208], the IC50 in assay [1] is 100 to 1000 nM; in assay [2] it was 100 to 1000 nM; in assay [3], below 100 nM; in assay [4], 100 to 1000 nM. In addition, the AC50 in assay [1] lay within 100 to 1000 nM.

In the case of `Cn1cc2cc(-c3nc4sc(C5CCNCC5)cc4s3)cc(F)c2n1` [Compound 106, 7-fluoro-2-methyl-5-[5-(piperidin-4-yl)thieno[2,3-d][1,3]thiazol-2-yl]indazole], the 50% inhibitory concentration (IC50) in assay [1], in assay [2], in assay [3] and in assay [4] was below 100 nM each time. Moreover, in assay [1], the half-maximal activity concentration (AC50) was below 100 nM.

Turning to `Cc1cn2nc(-c3cc4cn([C@H]5CCNC[C@@H]5F)nc4s3)cc(C)c2n1` (mixture of isomers) [Compound 212, 5-(2,8-dimethylimidazo[1,2-b]pyridazin-6-yl)-2-((1:1 mixture of 3S,4S and 3R,4R)-3-fluoropiperidin-4-yl)-2H-thieno[2,3-c]pyrazole], the IC50 in assay [1] is 1000 to 10000 nM; in assay [2], 1000 to 10000 nM; in assay [3], 100 to 1000 nM; in assay [4], above 10000 nM. In assay [1], this compound showed an AC50 of 1000 to 10000 nM.

Consider `Cn1cc2c(O)c(-c3nc4sc(C5CCNCC5)cc4s3)ccc2n1` [Compound 231, 2-methyl-5-[5-(piperidin-4-yl)thieno[2,3-d][1,3]thiazol-2-yl]indazol-4-ol], for which the IC50 in assay [1] was 1000 to 10000 nM; in assay [2] it was 1000 to 10000 nM; in assay [3], 100 to 1000 nM; in assay [4], above 10000 nM. This compound returned an AC50 in assay [1] of 1000 to 10000 nM.

Turning to `C[C@@H]1C[C@@H](c2cc3sc(-c4cc(F)c5nn(C)cc5c4)nc3s2)CCN1` [Compound 193, 7-fluoro-2-methyl-5-[5-(2-methylpiperidin-4-yl)thieno[2,3-d][1,3]thiazol-2-yl]indazole], the IC50 in assay [1], in assay [2], in assay [3] and in assay [4] was below 100 nM each time. For the same compound, the concentration at half-maximal activity (AC50) in assay [1] is below 100 nM.

With `Cc1cn2nc(-c3cc4cn(C5CCNCC5)nc4s3)cc2c(C)n1` [Compound 222], the concentration for half-maximal inhibition (IC50) was 1000 to 10000 nM in assay [1], 1000 to 10000 nM in assay [2], below 100 nM in assay [3] and 1000 to 10000 nM in assay [4]. Moreover, the AC50 in assay [1] lay in the range of 1000 to 10000 nM.

Consider `Cc1c(O)c(-c2cc3cn(C4CCNCC4)nc3s2)cc2cn(C)nc12` [Compound 221], for which the IC50 in assay [1], in assay [2], in assay [3] and in assay [4] was above 10000 nM throughout. In assay [1], the half-maximal activity concentration (AC50) was above 10000 nM.

Take `COc1c(-c2nc3sc(C4CCNCC4)cc3s2)cc(F)c2nn(C)cc12` [Compound 237, 7-fluoro-4-methoxy-2-methyl-5-[5-(piperidin-4-yl)thieno[2,3-d][1,3]thiazol-2-yl]indazole]: the concentration for half-maximal inhibition (IC50) in assay [1], in assay [2], in assay [3] and in assay [4] was above 10000 nM each time. The AC50 in assay [1] was above 10000 nM.

Regarding `Cn1cc2cc(-n3cc4sc(C5CCNCC5)cc4n3)cc(F)c2n1` [Compound 105, 7-fluoro-2-methyl-5-[5-(piperidin-4-yl)thieno[3,2-c]pyrazol-2-yl]indazole], the half-maximal inhibitory concentration (IC50) fell in the range of 100 to 1000 nM in assay [1], 100 to 1000 nM in assay [2], 100 to 1000 nM in assay [3] and 1000 to 10000 nM in assay [4]. The compound also registered a concentration at half-maximal activity (AC50) in assay [1] of 100 to 1000 nM.

In the case of `Cn1cc2cc(-c3cc4cn(C5CNC5)nc4s3)cc(F)c2n1` [Compound 184], the IC50 in assay [1] is 1000 to 10000 nM; in assay [2] it was 1000 to 10000 nM; in assay [3], 100 to 1000 nM; in assay [4], above 10000 nM. For the same compound, the AC50 in assay [1] lay within 1000 to 10000 nM.

For the compound `Cc1nc2c(F)cc(-n3cc4sc(C5CCNCC5)cc4n3)cc2o1` [Compound 167], the IC50 in assay [1] was in the range of 100 to 1000 nM; in assay [2] it was 100 to 1000 nM; in assay [3], 100 to 1000 nM; in assay [4], 1000 to 10000 nM. In addition, in assay [1], the AC50 lay in the range of 100 to 1000 nM.

Turning to `Cn1cc2cc(-c3cc4cn(C5CCOCC5)nc4s3)cc(F)c2n1` [Compound 161, 7-fluoro-2-methyl-5-[2-(oxan-4-yl)thieno[2,3-c]pyrazol-5-yl] indazole], the half-maximal inhibitory concentration (IC50) in assay [1], in assay [2], in assay [3] and in assay [4] was above 10000 nM in each case. Besides, in assay [1], the AC50 was above 10000 nM.

Turning to `COc1c(-c2cc3cn(C4CCNCC4)nc3s2)cc(F)c2nn(C)cc12` [Compound 224], the 50% inhibitory concentration (IC50) in assay [1], in assay [2], in assay [3] and in assay [4] was above 10000 nM each time. This compound displayed an AC50 in assay [1] above 10000 nM.

As for `Cn1cc2cc(-c3cc4cn([C@@H]5CCNC5)nc4s3)cc(F)c2n1` [Compound 160, (R)-5-(7-fluoro-2-methyl-2H-indazol-5-yl)-2-(pyrrolidin-3-yl)-2H-thieno[2,3-c]pyrazole hydrochloride], the concentration for half-maximal inhibition (IC50) was 1000 to 10000 nM in assay [1], 1000 to 10000 nM in assay [2], 100 to 1000 nM in assay [3] and above 10000 nM in assay [4]. The same compound yielded a concentration at half-maximal activity (AC50) in assay [1] of 1000 to 10000 nM.

For the compound `Cc1cn2cc(-c3cc4cn(C5CCNCC5)nc4s3)cc(Cl)c2n1` [Compound 226], the IC50 was below 100 nM in assay [1], below 100 nM in assay [2], below 100 nM in assay [3] and 100 to 1000 nM in assay [4]. In assay [1], the AC50 was below 100 nM.
